Our source for the IC50 values is ChEMBL document CHEMBL3779774, “Efficient synthesis of novel disubstituted pyrido[3,4-b]pyrazines for the design of protein kinase inhibitors” (Medchemcomm, 2016).

Usually IC50 stands for the point on the concentration scale where inhibition reaches its midpoint.

Experiment [1] deals with High affinity nerve growth factor receptor (Homo sapiens, UniProt P04629). The experiment in a line: Inhibition of N-terminal His6-tagged human recombinant TrkA (440 to end residues) expressed in baculovirus infected insect Sf21 cells after 1 hr by Alphascreen assay. (In general: Bead proximity is the source of the signal in Alpha formats.)
Experiment [2] deals with Serine/threonine-protein kinase pim-1 (Homo sapiens, UniProt P11309). The experiment in a line: Inhibition of N-terminal GST-tagged recombinant human full length Pim-1 expressed in Escherichia coli after 1 hr by Alphascreen assay.
In experiment [3] the target is Homeodomain-interacting protein kinase 1 (Homo sapiens, UniProt Q86Z02). Briefly: Inhibition of N-terminal His6-tagged recombinant human HIPK1 (158 to 555 residues) after 1 hr by Alphascreen assay.
The target in experiment [4] is Vascular endothelial growth factor receptor 2 (Homo sapiens, UniProt P35968). The experiment in a line: Inhibition of N-terminal His6-tagged human recombinant KDR (790 to end residues) expressed in baculovirus infected insect Sf21 cells after 1 hr by Alphascreen assay.
Experiment [5] has as its target Mitogen-activated protein kinase 1 (Homo sapiens, UniProt P28482). Briefly: Inhibition of recombinant ERK2 (unknown origin) after 1 hr by Alphascreen assay.
Experiment [6] addresses Tyrosine-protein kinase Yes (Homo sapiens, UniProt P07947). Briefly: Inhibition of N-terminal His6-tagged human recombinant Yes expressed in baculovirus infected insect Sf21 cells after 1 hr by Alphascreen assay.
Experiment [7] addresses Tyrosine-protein kinase ABL1 (Homo sapiens, UniProt P00519). The experiment in a line: Inhibition of recombinant c-Abl (unknown origin) after 1 hr by Alphascreen assay.

Homeodomain-interacting protein kinase 1, sequence (Q86Z02 whole entry, the tested form may be a part): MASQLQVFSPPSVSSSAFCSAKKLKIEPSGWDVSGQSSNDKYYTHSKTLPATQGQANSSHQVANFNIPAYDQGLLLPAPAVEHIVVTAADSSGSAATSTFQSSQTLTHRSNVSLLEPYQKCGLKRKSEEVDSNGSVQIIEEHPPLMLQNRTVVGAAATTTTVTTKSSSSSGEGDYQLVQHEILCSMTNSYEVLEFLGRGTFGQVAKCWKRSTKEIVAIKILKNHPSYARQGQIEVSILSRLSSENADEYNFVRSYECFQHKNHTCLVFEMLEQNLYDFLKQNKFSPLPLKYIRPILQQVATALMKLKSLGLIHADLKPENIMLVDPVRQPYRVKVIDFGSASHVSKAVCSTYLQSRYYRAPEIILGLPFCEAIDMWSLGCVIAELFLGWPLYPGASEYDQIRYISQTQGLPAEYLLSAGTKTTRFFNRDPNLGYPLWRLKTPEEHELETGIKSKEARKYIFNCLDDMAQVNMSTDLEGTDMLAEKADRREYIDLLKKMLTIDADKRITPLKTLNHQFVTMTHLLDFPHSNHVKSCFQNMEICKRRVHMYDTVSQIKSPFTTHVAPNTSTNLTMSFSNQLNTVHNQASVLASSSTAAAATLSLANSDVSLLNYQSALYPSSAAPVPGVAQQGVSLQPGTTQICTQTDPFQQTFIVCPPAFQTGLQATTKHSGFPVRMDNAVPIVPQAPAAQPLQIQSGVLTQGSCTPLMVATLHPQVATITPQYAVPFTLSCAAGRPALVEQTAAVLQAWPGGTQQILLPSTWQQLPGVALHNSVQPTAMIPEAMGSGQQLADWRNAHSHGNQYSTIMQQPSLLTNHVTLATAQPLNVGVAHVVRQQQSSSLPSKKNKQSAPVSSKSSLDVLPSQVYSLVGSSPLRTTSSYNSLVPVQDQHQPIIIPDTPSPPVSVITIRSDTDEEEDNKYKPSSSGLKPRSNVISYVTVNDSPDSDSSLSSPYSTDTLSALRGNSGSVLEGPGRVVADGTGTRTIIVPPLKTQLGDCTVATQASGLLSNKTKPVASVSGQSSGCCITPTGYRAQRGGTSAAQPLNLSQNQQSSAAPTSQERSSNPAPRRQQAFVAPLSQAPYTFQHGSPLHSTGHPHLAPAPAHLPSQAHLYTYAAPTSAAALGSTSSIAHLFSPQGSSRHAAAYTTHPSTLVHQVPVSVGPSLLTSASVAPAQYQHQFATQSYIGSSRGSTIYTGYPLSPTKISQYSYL
Mitogen-activated protein kinase 1, sequence (P28482 whole entry): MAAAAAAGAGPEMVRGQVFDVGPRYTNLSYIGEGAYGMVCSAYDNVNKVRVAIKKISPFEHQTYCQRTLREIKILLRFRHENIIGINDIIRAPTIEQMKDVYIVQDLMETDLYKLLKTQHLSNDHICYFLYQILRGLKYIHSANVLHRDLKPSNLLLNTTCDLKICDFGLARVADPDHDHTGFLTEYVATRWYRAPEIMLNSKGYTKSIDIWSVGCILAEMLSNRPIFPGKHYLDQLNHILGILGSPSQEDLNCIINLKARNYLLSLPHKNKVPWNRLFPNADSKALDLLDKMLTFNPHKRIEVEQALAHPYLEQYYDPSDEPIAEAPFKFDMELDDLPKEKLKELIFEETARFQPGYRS
Serine/threonine-protein kinase pim-1, sequence (P11309 whole entry, the tested form may be a part): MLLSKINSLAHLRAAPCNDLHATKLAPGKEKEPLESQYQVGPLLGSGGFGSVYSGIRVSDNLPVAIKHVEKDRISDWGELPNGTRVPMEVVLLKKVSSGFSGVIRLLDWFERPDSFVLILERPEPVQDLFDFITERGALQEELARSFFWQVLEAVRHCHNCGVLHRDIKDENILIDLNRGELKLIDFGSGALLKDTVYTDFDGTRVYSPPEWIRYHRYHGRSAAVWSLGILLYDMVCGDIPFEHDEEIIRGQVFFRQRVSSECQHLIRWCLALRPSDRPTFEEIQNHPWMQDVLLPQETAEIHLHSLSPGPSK
Tyrosine-protein kinase ABL1, sequence (P00519 whole entry): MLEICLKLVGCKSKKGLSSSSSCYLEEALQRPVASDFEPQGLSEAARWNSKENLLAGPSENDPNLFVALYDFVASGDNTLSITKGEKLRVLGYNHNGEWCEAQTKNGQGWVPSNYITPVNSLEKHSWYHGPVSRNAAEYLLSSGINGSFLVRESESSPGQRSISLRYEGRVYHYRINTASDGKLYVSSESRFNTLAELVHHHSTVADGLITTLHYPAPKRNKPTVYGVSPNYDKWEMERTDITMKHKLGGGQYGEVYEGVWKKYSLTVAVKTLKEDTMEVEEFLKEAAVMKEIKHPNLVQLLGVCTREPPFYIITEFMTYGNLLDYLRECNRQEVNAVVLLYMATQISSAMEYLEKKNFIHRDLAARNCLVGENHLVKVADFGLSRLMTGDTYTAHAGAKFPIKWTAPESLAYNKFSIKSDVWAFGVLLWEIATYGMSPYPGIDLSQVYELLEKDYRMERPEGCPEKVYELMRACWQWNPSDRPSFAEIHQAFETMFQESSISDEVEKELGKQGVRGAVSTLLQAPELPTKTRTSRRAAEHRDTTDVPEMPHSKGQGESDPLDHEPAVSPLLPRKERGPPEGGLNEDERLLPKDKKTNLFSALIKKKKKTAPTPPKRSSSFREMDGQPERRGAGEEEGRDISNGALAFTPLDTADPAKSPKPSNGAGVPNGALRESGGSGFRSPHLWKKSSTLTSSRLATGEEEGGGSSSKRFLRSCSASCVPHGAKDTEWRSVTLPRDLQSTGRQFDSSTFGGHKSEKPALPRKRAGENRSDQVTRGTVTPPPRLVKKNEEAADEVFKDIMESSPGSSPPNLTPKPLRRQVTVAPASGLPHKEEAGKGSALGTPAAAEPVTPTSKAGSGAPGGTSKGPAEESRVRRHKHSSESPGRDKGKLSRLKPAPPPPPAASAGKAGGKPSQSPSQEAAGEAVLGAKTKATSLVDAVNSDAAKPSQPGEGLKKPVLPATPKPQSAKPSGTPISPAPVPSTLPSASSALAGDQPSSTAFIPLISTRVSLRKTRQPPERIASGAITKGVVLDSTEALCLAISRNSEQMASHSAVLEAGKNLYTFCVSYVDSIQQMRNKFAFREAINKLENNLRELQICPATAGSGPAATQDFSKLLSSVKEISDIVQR
Tyrosine-protein kinase Yes, sequence (P07947 whole entry): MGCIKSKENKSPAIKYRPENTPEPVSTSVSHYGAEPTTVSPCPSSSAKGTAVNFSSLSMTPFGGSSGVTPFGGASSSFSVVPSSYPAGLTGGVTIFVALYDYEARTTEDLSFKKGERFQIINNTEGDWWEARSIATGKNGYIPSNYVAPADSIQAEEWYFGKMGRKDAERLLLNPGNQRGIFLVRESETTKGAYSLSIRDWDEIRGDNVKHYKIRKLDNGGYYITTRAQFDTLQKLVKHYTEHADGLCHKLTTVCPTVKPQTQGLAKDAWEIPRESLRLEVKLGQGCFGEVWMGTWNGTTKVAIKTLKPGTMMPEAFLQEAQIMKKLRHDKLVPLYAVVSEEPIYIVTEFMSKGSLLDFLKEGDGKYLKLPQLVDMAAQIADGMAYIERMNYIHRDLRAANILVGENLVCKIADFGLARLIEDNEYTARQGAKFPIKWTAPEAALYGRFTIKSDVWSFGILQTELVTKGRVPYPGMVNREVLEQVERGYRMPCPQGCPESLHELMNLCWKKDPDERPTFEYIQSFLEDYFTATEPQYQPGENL
High affinity nerve growth factor receptor, sequence (P04629 whole entry): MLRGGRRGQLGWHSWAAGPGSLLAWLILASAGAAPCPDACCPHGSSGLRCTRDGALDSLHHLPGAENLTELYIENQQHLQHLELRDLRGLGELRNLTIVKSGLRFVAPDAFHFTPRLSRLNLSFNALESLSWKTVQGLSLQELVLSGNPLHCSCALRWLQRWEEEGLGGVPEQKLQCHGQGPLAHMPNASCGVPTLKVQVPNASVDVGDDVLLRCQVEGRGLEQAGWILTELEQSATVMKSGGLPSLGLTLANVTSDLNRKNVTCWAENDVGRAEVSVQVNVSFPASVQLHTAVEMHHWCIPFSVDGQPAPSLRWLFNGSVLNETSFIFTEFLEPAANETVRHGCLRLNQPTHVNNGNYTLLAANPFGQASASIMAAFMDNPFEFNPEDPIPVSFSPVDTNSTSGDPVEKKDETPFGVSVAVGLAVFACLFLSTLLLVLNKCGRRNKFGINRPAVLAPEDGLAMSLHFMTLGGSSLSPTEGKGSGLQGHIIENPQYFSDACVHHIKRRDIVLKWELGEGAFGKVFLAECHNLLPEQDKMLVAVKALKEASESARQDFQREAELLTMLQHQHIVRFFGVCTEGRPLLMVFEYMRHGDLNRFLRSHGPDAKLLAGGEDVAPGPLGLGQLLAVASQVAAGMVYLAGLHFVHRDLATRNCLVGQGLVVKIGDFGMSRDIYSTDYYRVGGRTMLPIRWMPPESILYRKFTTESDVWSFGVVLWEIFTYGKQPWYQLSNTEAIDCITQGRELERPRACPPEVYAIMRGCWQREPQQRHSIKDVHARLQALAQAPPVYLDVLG

As to `c1ccc(-c2cnc3cncc(Nc4ccc(N5CCCCC5)cc4)c3n2)cc1`, the IC50 in experiment [1] was 3.23 µM; in experiment [2], 2.61 µM; in experiment [3] it was 2.59 µM; in experiment [4] it was 1.56 µM; in experiment [5] it was 2.02 µM; in experiment [6], 5.56 µM. The IC50 in experiment [7] was determined as 2.16 µM.
As for `c1ccc(-c2cnc3cc(Nc4ccc(N5CCCCC5)cc4)ncc3n2)cc1`, the concentration for half-maximal inhibition (IC50) in experiment [1] was above 100 µM; in experiment [2], above 100 µM; in experiment [3] it was above 100 µM; in experiment [4] it was above 100 µM; in experiment [5], above 100 µM; in experiment [6], 27.2 µM. Further, in experiment [7], the IC50 turned out to be 12.9 µM.
As to `COc1cccc(Nc2cc3nc(-c4ccccc4)cnc3cn2)c1`, the IC50 in experiment [1] is above 100 µM; in experiment [2], above 100 µM; in experiment [3], above 100 µM; in experiment [4] it was above 100 µM; in experiment [5], above 100 µM; in experiment [6], above 31.6 µM. In experiment [7], the IC50 is above 100 µM.
Regarding `c1ccc(-c2cnc3c(Nc4ccc(N5CCOCC5)cc4)nccc3n2)cc1`, the IC50 in experiment [1] was 13.7 µM; in experiment [2], above 100 µM; in experiment [3], above 100 µM; in experiment [4] it was 16 µM; in experiment [5] it was above 100 µM; in experiment [6] it was 12.6 µM. Moreover, the IC50 in experiment [7] worked out at 11.5 µM.
Consider `c1ccc(Nc2cncc3nc(-c4ccc(N5CCCCC5)cc4)cnc23)cc1`, for which the IC50 was above 100 µM in experiment [1]; above 100 µM in experiment [2]; above 100 µM in experiment [3]; above 100 µM in experiment [4]; above 100 µM in experiment [5]; above 31.6 µM in experiment [6]. Also, in experiment [7], the half-inhibitory concentration (IC50) amounted to 22.5 µM.
With `COc1cccc(NC(=O)Nc2cncc3nc(-c4ccccc4)cnc23)c1`, the half-maximal inhibitory concentration (IC50) in experiment [1] was above 100 µM; in experiment [2], above 31.6 µM; in experiment [3] it was above 100 µM; in experiment [4], above 100 µM; in experiment [5], above 31.6 µM; in experiment [6] it was above 31.6 µM. Also, the IC50 in experiment [7] is above 100 µM.
Turning to `c1ccc(-c2cnc3cncc(Nc4ccc(N5CCOCC5)cc4)c3n2)cc1`, the IC50 was found to be 5.32 µM in experiment [1]; 8.3 µM in experiment [2]; 8.15 µM in experiment [3]; 6.12 µM in experiment [4]; 8.43 µM in experiment [5]; 5.11 µM in experiment [6]. Also, the IC50 in experiment [7] turned out to be 5.27 µM.
`COc1ccc(-c2cnc3cncc(Nc4cc(OC)ccc4OC)c3n2)cc1`: the IC50 in experiment [1] came to 1.45 µM; in experiment [2] it was 8.57 µM; in experiment [3], 13.1 µM; in experiment [4], 1.6 µM; in experiment [5], 3.79 µM; in experiment [6], 2.01 µM. Further, the 50% inhibitory concentration (IC50) in experiment [7] was 1.37 µM.
Consider `c1ccc(-c2cnc3cnc(Nc4ccc(N5CCCCC5)cc4)cc3n2)cc1`, for which the 50% inhibitory concentration (IC50) was 9.24 µM in experiment [1]; 27.4 µM in experiment [2]; 30.5 µM in experiment [3]; 17.1 µM in experiment [4]; 23.2 µM in experiment [5]; 23.1 µM in experiment [6]. The IC50 in experiment [7] came out at 8.71 µM.
On to `COc1cccc(Nc2cncc3ncc(-c4ccc(N5CCCCC5)cc4)nc23)c1`, for which the IC50 in experiment [1] was 9.36 µM; in experiment [2] it was 11.3 µM; in experiment [3], 12.7 µM; in experiment [4] it was 8.84 µM; in experiment [5], 16.6 µM; in experiment [6] it was 11.1 µM. In experiment [7], the IC50 worked out at 7.71 µM.
On to `COc1cccc(Nc2cncc3nc(-c4ccc(N5CCCCC5)cc4)cnc23)c1`, for which the IC50 in experiment [1] is above 100 µM; in experiment [2] it was above 100 µM; in experiment [3] it was above 100 µM; in experiment [4] it was above 100 µM; in experiment [5] it was above 100 µM; in experiment [6] it was above 31.6 µM. The IC50 in experiment [7] turned out to be 7.91 µM.
As to `COc1ccccc1Nc1nccc2nc(-c3ccccc3)cnc12`, the half-maximal inhibitory concentration (IC50) in experiment [1] was above 100 µM; in experiment [2] it was above 100 µM; in experiment [3], above 100 µM; in experiment [4] it was above 31.6 µM; in experiment [5], above 100 µM; in experiment [6], 20.4 µM. In experiment [7], the IC50 is 16.6 µM.
As for `C=CCNC(=O)Nc1cncc2nc(-c3ccccc3)cnc12`, the half-maximal inhibitory concentration (IC50) is above 100 µM in experiment [1]; above 100 µM in experiment [2]; above 100 µM in experiment [3]; above 31.6 µM in experiment [4]; above 31.6 µM in experiment [5]; above 100 µM in experiment [6]. Also, in experiment [7], the half-maximal inhibitory concentration (IC50) was above 100 µM.
For `c1ccc(-c2cnc3c(Nc4ccc(N5CCCCC5)cc4)nccc3n2)cc1`, the IC50 in experiment [1] came to 5.81 µM; in experiment [2], 4.91 µM; in experiment [3], 0.922 µM; in experiment [4], 1.1 µM; in experiment [5], 1.42 µM; in experiment [6], 8.1 µM. Also, the IC50 in experiment [7] was 2.66 µM.
Consider `c1ccc(Nc2cncc3ncc(-c4ccc(N5CCCCC5)cc4)nc23)cc1`, for which the 50% inhibitory concentration (IC50) in experiment [1] was 7.79 µM; in experiment [2], 31.2 µM; in experiment [3] it was 11.8 µM; in experiment [4], 11.1 µM; in experiment [5], 12.2 µM; in experiment [6], 8.82 µM. Moreover, in experiment [7], the IC50 was determined as 6.84 µM.
For the molecule `COc1ccc(-c2cnc3c(Nc4ccc(N5CCOCC5)cc4)nccc3n2)cc1`, the IC50 was 6.69 µM in experiment [1]; above 100 µM in experiment [2]; above 100 µM in experiment [3]; 12 µM in experiment [4]; above 100 µM in experiment [5]; 7.07 µM in experiment [6]. In addition, in experiment [7], the IC50 stood at 5.37 µM.
In the case of `COc1cccc(Nc2nccc3nc(-c4ccccc4)cnc23)c1`, the IC50 in experiment [1], in experiment [2], in experiment [3], in experiment [4], in experiment [5] and in experiment [6] was above 100 µM each time. Moreover, in experiment [7], the concentration for half-maximal inhibition (IC50) is above 100 µM.
Turning to `COc1cccc(NC(=O)Nc2nccc3nc(-c4ccccc4)cnc23)c1`, the IC50 is above 100 µM in experiment [1]; above 100 µM in experiment [2]; above 100 µM in experiment [3]; above 100 µM in experiment [4]; above 100 µM in experiment [5]; above 31.6 µM in experiment [6]. The half-inhibitory concentration (IC50) in experiment [7] is above 100 µM.
For the molecule `Fc1ccc(Nc2cncc3nc(-c4ccccc4)cnc23)cc1Cl`, the IC50 is above 100 µM in experiment [1]; above 100 µM in experiment [2]; above 100 µM in experiment [3]; above 100 µM in experiment [4]; above 100 µM in experiment [5]; above 31.6 µM in experiment [6]. Besides, in experiment [7], the IC50 was above 100 µM.
As for `CCNC(=O)Nc1nccc2nc(-c3ccccc3)cnc12`, the IC50 in experiment [1], in experiment [2], in experiment [3], in experiment [4], in experiment [5] and in experiment [6] was above 100 µM in each case. The IC50 in experiment [7] amounted to 30.8 µM.
For `COc1ccc(NC(=O)Nc2cncc3nc(-c4ccccc4)cnc23)cc1`, the half-maximal inhibitory concentration (IC50) was above 100 µM in experiment [1]; 16.4 µM in experiment [2]; 20.4 µM in experiment [3]; above 100 µM in experiment [4]; 5.25 µM in experiment [5]; 22.1 µM in experiment [6]. Also, in experiment [7], the IC50 stood at 25.1 µM.
In the case of `COc1ccc(-c2cnc3c(Nc4ccc(N5CCCCC5)cc4)nccc3n2)cc1`, the IC50 in experiment [1] is 1.44 µM; in experiment [2] it was 11.8 µM; in experiment [3], 7.25 µM; in experiment [4] it was 1.99 µM; in experiment [5], 1.44 µM; in experiment [6] it was 1.02 µM. The IC50 in experiment [7] was 1.34 µM.
Consider `C#Cc1cccc(Nc2nccc3nc(-c4ccccc4)cnc23)c1`, for which the IC50 in experiment [1], in experiment [2], in experiment [3], in experiment [4], in experiment [5] and in experiment [6] was above 100 µM in each case. In addition, in experiment [7], the half-inhibitory concentration (IC50) is above 100 µM.
For `COc1ccc(Nc2nccc3nc(-c4ccccc4)cnc23)cc1`, the IC50 in experiment [1] was above 100 µM; in experiment [2] it was above 100 µM; in experiment [3], above 100 µM; in experiment [4], above 100 µM; in experiment [5], above 100 µM; in experiment [6], 31.5 µM. The IC50 in experiment [7] was above 100 µM.
On to `COc1ccc(-c2cnc3cncc(Nc4ccc(N5CCOCC5)cc4)c3n2)cc1`, for which the IC50 was determined as 2.48 µM in experiment [1]; 4.4 µM in experiment [2]; 4.02 µM in experiment [3]; 3.31 µM in experiment [4]; 4.26 µM in experiment [5]; 2.41 µM in experiment [6]. Moreover, in experiment [7], the IC50 came to 2.49 µM.
As to `COc1ccc(-c2cnc3cncc(Nc4ccc(N5CCCCC5)cc4)c3n2)cc1`, the half-maximal inhibitory concentration (IC50) stood at 3.72 µM in experiment [1]; 2.83 µM in experiment [2]; 3.21 µM in experiment [3]; 2.05 µM in experiment [4]; 3.13 µM in experiment [5]; 5.34 µM in experiment [6]. Besides, the IC50 in experiment [7] came to 2.27 µM.
Take `c1ccc(-c2cnc3cnc(Nc4ccc(N5CCOCC5)cc4)cc3n2)cc1`: the IC50 in experiment [1], in experiment [2], in experiment [3], in experiment [4], in experiment [5] and in experiment [6] was above 100 µM throughout. The IC50 in experiment [7] was above 100 µM.
For `c1ccc(-c2cnc3c(Nc4ccc(N5CCCCC5)cc4)cncc3n2)cc1`, the IC50 came out at 3.42 µM in experiment [1]; 2.81 µM in experiment [2]; 2.73 µM in experiment [3]; 2.06 µM in experiment [4]; 2.34 µM in experiment [5]; 6.21 µM in experiment [6]. Also, the IC50 in experiment [7] was found to be 2.54 µM.
